Data from PMC8837603, “Lapcin, a potent dual topoisomerase I/II inhibitor discovered by soil metagenome guided total chemical synthesis” (Nature Communications, 2022).

How the values were obtained:
[1] = tested on: HT29 cells; assay: cells; format: cell-based, human; details: Homo sapiens, HT-29; colon cancer; MTT, 48 h, 37 °C; DMEM + 10% FBS; 2,500 cells/well; absorbance 570 nm; n = 3 biologically independent
Description: (§1) An MTT (2-(4,5-dimethylthiazol-2-yl)−2,5-diphenyltetrazolium bromide) assay was used to determine the cytotoxicity of lapcin towards diverse cancer cell lines. Lapcin was dissolved in DMSO to make a 3.2 mg/mL working solution. For each cancer line detailed in Supplementary Table 5, cells at 80-90% confluency were counted and seeded in 96-well, flat bottom microplates and incubated at 37 °C with a 5% CO2 atmosphere. Outer wells were unused to avoid edge effects. After adhering for 24 h, the medium was sterilely aspirated and replaced with 100 µL of fresh medium containing lapcin or a control compound serially diluted at concentrations ranging from 8,000 to 0.00382 ng/mL. After 48 h (37 °C, 5% CO2), the medium was carefully removed and 110 µL of freshly prepared MTT solution (10 µL of 5 mg/mL MTT in PBS (pH 7.4) premixed with 100 µL of complete medium) was added to each well. After 3 h at 37 °C with 5% CO2, 100 µL of solubilization solution (40% DMF, 16% SDS and 2% acetic acid in H2O) was added to each well and precipitated formazan crystals were allowed to dissolve for 4 h. The absorbance of each well was then measured at 570 nm using a Tecan microplate reader.

[2] = tested on: MCF 7 cells; assay: cells; format: cell-based, human; details: Homo sapiens, MCF7; breast cancer; MTT, 48 h, 37 °C; DMEM + 10% FBS; 8,000 cells/well; absorbance 570 nm; n = 3 biologically independent
Description: as §1

[3] = tested on: NCI-H1299 cells; assay: cells; format: cell-based, human; details: Homo sapiens, NCI-H1299; lung cancer; MTT, 48 h, 37 °C; RPMI-1640 + 10% FBS; 2,500 cells/well; absorbance 570 nm; n = 3 biologically independent
Description: as §1

[4] = tested on: A549 cells; assay: cells; format: cell-based, human; details: Homo sapiens, A549; lung cancer; MTT, 48 h, 37 °C; DMEM + 10% FBS + NEAA; 2,500 cells/well; absorbance 570 nm; n = 3 biologically independent
Description: as §1

[5] = tested on: NCI-H226 cells; assay: cells; format: cell-based, human; details: Homo sapiens, NCI-H226; lung cancer; MTT, 48 h, 37 °C; RPMI-1640 + 10% FBS; 10,000 cells/well; absorbance 570 nm; n = 3 biologically independent
Description: as §1

[6] = tested on: U2OS (Bone) cells; assay: cells; format: cell-based, human; details: Homo sapiens, U2OS; bone cancer; MTT, 48 h, 37 °C; DMEM + 10% FBS + NEAA; 2,500 cells/well; absorbance 570 nm; n = 3 biologically independent
Description: as §1

[7] = tested on: HCC1806 cells; assay: cells; format: cell-based, human; details: Homo sapiens, HCC1806; breast cancer; MTT, 48 h, 37 °C; RPMI-1640 + 10% FBS; 2,500 cells/well; absorbance 570 nm; n = 3 biologically independent
Description: as §1

[8] = tested on: Hela (Cervical) cells; assay: cells; format: cell-based, human; details: Homo sapiens, HeLa; cervical cancer; MTT, 48 h, 37 °C; DMEM + 10% FBS; 2,500 cells/well; absorbance 570 nm; n = 3 biologically independent
Description: as §1

[9] = tested on: Colo205 cells; assay: cells; format: cell-based, human; details: Homo sapiens, COLO 205; colon cancer; MTT, 48 h, 37 °C; RPMI-1640 + 10% FBS; 2,500 cells/well; absorbance 570 nm; n = 3 biologically independent
Description: as §1

[10] = tested on: HCT116 cells; assay: cells; format: cell-based, human; details: Homo sapiens, HCT-116; colon cancer; MTT, 48 h, 37 °C; DMEM + 10% FBS; 10,000 cells/well; absorbance 570 nm; n = 3 biologically independent
Description: as §1

[11] = tested on: HEK293 cells; assay: cells; format: cell-based, human; details: Homo sapiens, HEK293; normal cell; MTT, 48 h, 37 °C; DMEM + 10% FBS; 5, 000 cells/well; absorbance 570 nm; n = 3 biologically independent
Description: as §1

[12] = tested on: SW480 cells; assay: cells; format: cell-based, human; details: Homo sapiens, SW480; colon cancer; MTT, 48 h, 37 °C; DMEM + 10% FBS; 10,000 cells/well; absorbance 570 nm; n = 3 biologically independent
Description: as §1

[13] = tested on: bacterial DNA gyrase; details: ref [9],[25]; cited from earlier work

Row | Molecule | IC50 [1] | IC50 [2] | IC50 [3] | IC50 [4] | IC50 [5] | IC50 [6] | IC50 [7] | IC50 [8] | IC50 [9] | IC50 [10] | IC50 [11] | IC50 [12] | inhibition of bacterial DNA gyrase [13]
1 | CC[C@@]1(O)C(=O)OCc2c1cc1n(c2=O)Cc2cc3ccccc3nc2-1 [Camptothecin] | 0.0223 µM | > 29.2 µM | 0.015 µM | 0.0176 µM | 0.0285 µM | 0.172 µM | 0.0196 µM | 0.0626 µM | 0.0957 µM | 0.129 µM | 0.0192 µM | 0.284 µM | 
2 | COc1cc([C@@H]2c3cc4c(cc3[C@@H](O[C@@H]3O[C@@H]5CO[C@@H](C)O[C@H]5[C@H](O)[C@H]3O)[C@H]3COC(=O)[C@H]23)OCO4)cc(OC)c1O [Etoposide] | 9.61 µM | 0.333 µM | 0.716 µM | 0.0799 µM | 0.217 µM | 1.84 µM | 3.33 µM | 1.51 µM |  | > 54.4 µM | 0.729 µM | 26.9 µM | 
3 | albicidin |  |  |  |  |  |  |  |  |  |  |  |  | inhibit the bacterial DNA gyrase
